Data on one sequence can be found in US6555113B1, “Modulation of cholesteryl ester transfer protein (CETP) activity” (priority 1995, dated 2003).

On the set-up of assay [1]: species or system New Zealand White Rabbits. The note with it: rabbit, in vivo.
Assay [2] concerns aortic atherosclerotic lesions. The assay is described as follows: Measurement of aortic atherosclerotic lesions in rabbits, cholesterol-fed model of atherosclerosis. In kind it is in vivo, New Zealand White Rabbits. As for the experimental part: The synthetic vaccine peptide (SEQ ID NO:2) of Example 1 above was injected into New Zealand White Rabbits to test the ability of the vaccine peptide to elicit an immune response against endogenous rabbit CETP and to protect or reduce development of atherosclerosis. Group I contained six rabbits (rb#1-#6), each of which was subjected to a protocol for administration of the vaccine peptide. Control Group II contained six rabbits (rb#7-12) that were vaccinated but not fed a high cholesterol diet. Control Group III contained six rabbits (rb#13-18) that were not vaccinated and not fed a high cholesterol diet. Control Group IV contained six rabbits (rb#19-24) that were not vaccinated but fed a high cholesterol diet. The high cholesterol diet was administered starting four weeks after a final boost with the vaccine and continued for a total of 17 weeks.
On Day 0, peptide (100 μg) was suspended in the RIBI™ adjuvant system (RIBI ImmunoChem Research, Inc., Hamilton, Mont.) according to manufacturer's instructions to a final volume of […], and each rabbit of Group I and II were injected at two intramuscular sites (250 μl per site), subcutaneously at two sites (100 μl per site), and six intradermal sites (50 μl per site). On Day 28, a boost (100 μg of peptide in RIBI™ adjuvant system) was administered as on Day 0. On Day 49, another boost (100 μg of peptide in RIBI™ adjuvant system) was administered as on Day 0. […]
Aortas were removed from all surviving rabbits (four in Groups I and IV, five in Group II, six in Group III) after 17 weeks (Day 196 from primary vaccination) on cholesterol supplemented diet in Groups I and IV and control diet (no cholesterol supplement) in Groups II and III. […] The lesions were measured and the data quantitated using a computer program (The Morphometer, Woods Hole Educational Associated, Woods Hole, Mass.).

Details of assay [3]: species or system New Zealand White Rabbits. Particulars: rabbit, in vivo. This is another data set of the same source.
Assay [4] concerns the target T1, recombinant human CETP (Homo sapiens, UniProt P11597). Particulars: in vivo.
Assay [5] addresses T1, recombinant human CETP. Particulars: in vivo. This is another data set of the same source.
Assay [6] deals with T1, recombinant human CETP. The note with it: in vivo. The source holds these as a separate data set.

T1 sequence (P11597 18-493): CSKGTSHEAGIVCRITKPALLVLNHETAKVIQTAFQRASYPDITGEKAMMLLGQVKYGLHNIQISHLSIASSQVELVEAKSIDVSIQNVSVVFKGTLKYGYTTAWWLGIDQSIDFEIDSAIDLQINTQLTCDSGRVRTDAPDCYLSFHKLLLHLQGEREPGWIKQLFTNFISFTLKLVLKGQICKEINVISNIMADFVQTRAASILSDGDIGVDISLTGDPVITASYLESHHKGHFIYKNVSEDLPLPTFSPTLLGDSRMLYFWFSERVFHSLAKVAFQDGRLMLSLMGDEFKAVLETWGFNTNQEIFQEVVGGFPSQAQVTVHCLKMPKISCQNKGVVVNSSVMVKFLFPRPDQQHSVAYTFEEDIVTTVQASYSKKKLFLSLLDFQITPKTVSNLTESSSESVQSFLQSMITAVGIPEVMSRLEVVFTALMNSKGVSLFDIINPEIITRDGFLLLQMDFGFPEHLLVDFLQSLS

In the case of “CQYIKANSKFIGITEFGFPEHLLVDFLQSLS [SEQ ID NO:2]”, the “levels of HDL-C compared to pre-vaccination levels” value in assay [1] was “showed an increase”. The “size of atherosclerotic lesions compared to non-vaccinated animals” value in assay [2] (Group I (vaccinated, cholesterol-supplemented diet) vs Group IV, 17 weeks on 0.25% cholesterol diet) is “statistically significant reduction”. The “average total area of the aorta covered by lesions” value in assay [2] (Group I vaccinated animals, 17 weeks on cholesterol supplemented diet, Oil Red O staining) came to 19%. In assay [2] (animals fed cholesterol supplemented diets, vaccinated vs non-vaccinated), the “reduction of the area of atherosclerotic lesions” value is on record as “greater than 50%”. Further, in assay [3], the “increase in HDL-C concentrations compared to prebleed plasma samples” value was in the range of 2 to 5 fold, the “plasma HDL concentrations over time” value is recorded as “increasing plasma HDL concentrations over time”, the “ratio of Non-HDL/HDL” value is reported as “generally declined” and the “total cholesterol in plasma samples” value is “no significant difference”. For the same sequence, at recombinant human CETP [4], the “inhibition of TP2 binding to CETP by plasma” value was “observed in plasma sample from two of the three rabbits”. Besides, the “titers of anti-CETP antibody by direct ELISA” value at recombinant human CETP [5] is recorded as “All Group I mice had significant titers”. For the same sequence, the “anti-CETP antibody that competed with Mab TP2 for binding to recombinant human CETP” value at recombinant human CETP [6] is given as “three of the six mice”.
